Results reported in patent US12286437B2, “Cardiac sarcomere inhibitors” (Cytokinetics, Inc., priority 2021, dated 2025).

Assay: Monkey single dose pharmacokinetics
Type: in vivo
Details: male, plasma, cynomolgus monkey, IV; for Vd: read-out: Vss; for half-life: read-out: t½ (converted)
Protocol: Non-naïve Male Cynomolgus Monkey (2-5 years of age, body weight 2-5 kg) used in this study were obtained from Topgene Biotechnology. All animals for IV administration had free access to food and water; all animals for PO were fasted overnight prior to dosing and were fed approximately 6 hours after dosing. The IV dose solution was prepared in 10% DMA/[…] solution (40% w/v aqueous HPβCD) at a concentration of 1.0 mg/mL. The oral dose suspension was prepared by suspending the compound in 0.5% HPMC/0.1% Tween 80 in distilled water at a concentration of 0.2 mg/mL. Concentrations of IV and PO doses were measured at the end of the study. PK parameters were calculated using the nominal dose values if the measured values were within 20% of the nominal values. Blood samples were collected by venipuncture of peripheral veins except the dosing vein at pre-dose, 5 15, 30 min, 1, 2, 4, 6, 8, 24 and 48 h post-dose. Blood samples were centrifuged and resultant plasma was frozen for bioanalysis. Plasma samples were stored at −80° C. before analysis. Plasma samples were analyzed for compound concentrations using the LC/MS/MS method. Briefly, a 50 μL aliquot of each plasma sample was mixed with 100 μL of acetonitrile that contained an internal standard. The mixture was vortexed and centrifuged. Ten (10) μL of the resulting solution was injected onto a reverse-phase C18 column and the resultant peaks detected on a LC/MS/MS equipped with a turbo ionspray ionization source. Sample concentrations below the limit of quantification (BLQ) were treated as zero for PK calculations. PK parameters were estimated from individual animals using noncompartmental analysis of the concentration-time data (Phoenix WinNonLin software, version 64; Pharsight, Mountain View, CA). The elimination rate constant (k) was calculated as the absolute value of the slope of the linear regression of logarithm (log) of the concentration versus time for the last three data points of the concentration-time profiles. Apparent elimination half-life (t1/2) values were calculated as ln(2)/k. Area under the concentration-time curve (AUC) values were estimated using linear trapezoidal method. AUCt values were calculated from the dosing time to the last measurable concentration. AUC∞ values were calculated as the sum of the corresponding AUCt and the ratio of the last detectable concentration divided by k. Plasma clearance (CL) was calculated from Dose/AUC∞. Mean resident time extrapolated to infinity (MRT∞) was estimated by moment analysis. Vss was calculated from MRT∞×CL. Maximum concentration (Cmax) and time to reach Cmax (tmax) were recorded as observed. As this was a cross-over study, bioavailability was calculated dAUC∞,po/dAUC∞,iv×100% where dAUC was the dose normalized AUC value from the same animal given IV and PO dose. Data for compounds tested are provided in Table E. Compounds tested were prepared in accordance with the synthetic procedures described herein.

clearance	Vd	half-life	SMILES
7.91 mL/min/kg	6.08 L/kg	10.9 h	C[C@H]1CC[C@H](N2CC(=O)N(Cc3ccc(Cl)cc3)C3(CN(C(N)=O)C3)C2=O)CC1 [Compound 18, 5-(4-chlorobenzyl)-8-((1r,4r)-4-methylcyclohexyl)-6,9-dioxo-2,5,8-triazaspiro[3.5]nonane-2-carboxamide]
25.8 mL/min/kg	3.98 L/kg	2.05 h	CC(C)N1CC(=O)N(Cc2ccc(C(F)(F)F)cc2)C2(CN(c3cccnn3)C2)C1=O [Compound 13, 8-isopropyl-2-(pyridazin-3-yl)-5-(4-(trifluoromethyl)benzyl)-2,5,8-triazaspiro[3.5]nonane-6,9-dione]
